Measurements as given in patent publication US20110251379A1, “COMPOUNDS USEFUL FOR TREATING NEURODEGENERATIVE DISORDERS” (Satori Pharmaceuticals, Inc., priority 2010, published 2011).

These compounds were tested on amyloid-beta (1-42) peptide (assay: ELISA assay of amyloid-beta (1-42) in conditioned media of 2B7 cells). Settings: 5 h, Aβ-42, 2B7 cells, 5 hours; read-out: IC50 range.
Type: cell-based
Protocol: Compounds of the present invention, and extracts comprising said compounds, may be assayed as inhibitors of amyloid-beta (1-42) peptide in vitro or in vivo. Such assay methods are described in detail in U.S. Pat. No. 6,649,196, the entirety of which is hereby incorporated herein by reference.
In certain embodiments, provided compounds of the present invention, and extracts comprising said compounds, were assayed as inhibitors of amyloid-beta (1-42) peptide in vitro using an ELISA assay.
Capture Plate Prep: • 6E10 was diluted to 5.0 ug/mL in 100 mM NaHCO3 pH 8.2 (10 ug aliquot per 2 mL buffer); • 100 uL capture antibody solution was added to wells of 96 well plate; • Incubated overnight at 4° C. sealed; • Aspirated off capture antibody; and • Blocked with 250 uL of Blocking Buffer for 2-4 hours at rt sealed.
Conditioned Media: • Cultured 2B7 cells in 96 well plate with 250 uL of media per well until confluent; • Prepared serial dilution of compounds in DMSO at 100× the final desired concentration; • Washed wells with 2B7 cells lx with 250 uL of media; • Diluted DMSO stocks 1:100 into media and mix; and • Added 250 μL of media containing compounds (1% DMSO) to wells with 2B7 cells for 5 hours at 37° C.
Elisa Sample Prep: • Diluted conditioned media 1:2 into blocking buffer; • NOTE: If assaying for A-Beta 1-40 or total A-Beta, then diluted above sample 1:10 with a 50/50 mixture of non-conditioned media containing 1% DMSO and blocking buffer.
Standard Curve Sample Prep: • Diluted appropriate A-Beta peptide stock (stored in 1% NH4OH) to 200 μg/mL in blocking buffer; • Prepared a 1:2 serial dilution from the 200 μg/mL sample (150 μL into 150 μL blocking buffer); and • Added equal volume of standard curve samples to non-conditioned media with 1% DMSO.
Overnight Sample Incubation: • Aspirated blocking buffer from blocked plate; • Added 100 μL of samples to wells of plate (samples will be 50% media with 1% DMSO and 50% blocking buffer; and • Incubated overnight at 4° C. sealed.
Addition of Detection Antibody: • Aspirated off samples, wash 2× with 250 μL blocking buffer; and • Added 100 μL detection antibody labeled with HRP at 0.25 ug/mL in blocking buffer for 4 hours at room temperature sealed.
Final Wash and Readout: • Aspirated wells, wash 5× with 250 μL of PBS-T (2 minutes each wash at 30 RPM); • Added 100 μL TMB for 20 minutes; • Added 100 μL of 1M H3PO4; and • Read at 450 nm.
Coating Buffer (100 mM NaHCO3 pH 8.2)
PBS-T (PBS with 0.05% Tween-20)
Blocking Buffer (1% BSA in PBS-T)
Work on `CC(=O)O[C@@H]([C@H]1C[C@@H](C)C2=C(O1)[C@H](O)[C@@]1(C)[C@@H]3CC[C@H]4C(C)(C)[C@@H](O[C@@H]5OC[C@@H](O)[C@H](O)[C@H]5O)CC[C@@]45C[C@@]35CC[C@]21C)C(C)(C)O` yielded an IC50 of no more than 1000 nM.
`C[C@@H]1C[C@H]([C@H](O)C(C)(C)O)OC2=C1[C@@]1(C)CC[C@@]34C[C@@]35CC[C@H](O[C@@H]3OC[C@@H](O)[C@H](O)[C@H]3O)C(C)(C)[C@@H]5CC[C@H]4[C@]1(C)[C@H]2O` gave an IC50 of 1000 to 10000 nM.
In the case of `CC(=O)O[C@@H]([C@H]1C[C@@H](C)C2=C(O1)[C@H](O)[C@@]1(C)[C@@H]3CC[C@H]4C(C)(C)[C@@H](O)CC[C@@]45C[C@@]35CC[C@]21C)C(C)(C)O`, the IC50 is reported as less than 10000 nM.
`CC(=O)O[C@@H]([C@H]1C[C@@H](C)C2C(O1)C(=O)[C@@]1(C)[C@@H]3CC[C@H]4C(C)(C)[C@@H](O)CC[C@@]45C[C@@]35CC[C@]21C)C(C)(C)O` (stereo partly shown) showed an IC50 of 1000 to 10000 nM.
`C[C@@H]1C[C@H]([C@H](O)C(C)(C)O)OC2C(=O)[C@@]3(C)[C@@H]4CC[C@H]5C(C)(C)[C@@H](O[C@@H]6OC[C@@H](O)[C@H](O)[C@H]6O)CC[C@@]56C[C@@]46CC[C@]3(C)C21` (stereo partly shown) gave an IC50 greater than 10000 nM.
`C[C@@H]1C[C@H]([C@@H]2OCOC2(C)C)OC2C1[C@@]1(C)CC[C@@]34C[C@@]35CC[C@H](O[C@@H]3OC[C@@H](O)[C@H](O)[C@H]3O)C(C)(C)[C@@H]5CC[C@H]4[C@]1(C)[C@H]2O` (stereo partly shown) gave an IC50 of 1000 to 10000 nM.
In the case of `C[C@@H]1C[C@H]([C@@H]2OC(=O)OC2(C)C)OC2=C1[C@@]1(C)CC[C@@]34C[C@@]35CC[C@H](O[C@@H]3OC[C@@H](O)[C@H](O)[C@H]3O)C(C)(C)[C@@H]5CC[C@H]4[C@]1(C)[C@H]2O`, the IC50 is reported as 1000 to 10000 nM.
`C[C@@H]1C[C@H]([C@@H]2OC(=O)OC2(C)C)OC2C(O)[C@@]3(C)[C@@H]4CC[C@H]5C(C)(C)[C@@H](O[C@@H]6OC[C@@H](O)[C@H](O)[C@H]6O)CC[C@@]56C[C@@]46CC[C@]3(C)C21` (stereo partly shown) gave an IC50 of 1000 to 10000 nM.
With `CC(=O)OC(C)(C)[C@@H](O)[C@H]1C[C@@H](C)C2=C(O1)[C@H](O)[C@@]1(C)[C@@H]3CC[C@H]4C(C)(C)[C@@H](OC5OC[C@@H](O)[C@H](O)[C@H]5O)CC[C@@]45C[C@@]35CC[C@]21C` (stereo partly shown) the IC50 was 1000 to 10000 nM.
`CCC(=O)OC(C)(C)[C@H]1OC23O[C@@H]1C[C@@H](C)[C@@H]2[C@@]1(C)CC[C@@]24C[C@@]25CC[C@H](O[C@@H]2OC[C@@H](O)[C@H](O)[C@H]2O)C(C)(C)[C@@H]5CC[C@H]4[C@]1(C)[C@H]3O` gave an IC50 of 1000 to 10000 nM.
Compound `CO[C@@H]([C@H]1C[C@@H](C)C2C(O1)[C@H](O)[C@@]1(C)[C@@H]3CC[C@H]4C(C)(C)[C@@H](O[C@@H]5OC[C@@H](O)[C@H](O)[C@H]5O)CC[C@@]45C[C@@]35CC[C@]21C)C(C)(C)O` (stereo partly shown) has an IC50 of 1000 to 10000 nM.
Compound `CCC(=O)O[C@@H]([C@H]1C[C@@H](C)C2C(O1)C(O)[C@@]1(C)[C@@H]3CC[C@H]4C(C)(C)[C@@H](O[C@@H]5OC[C@@H](O)[C@H](O)[C@H]5O)CC[C@@]45C[C@@]35CC[C@]21C)C(C)(C)O` (stereo partly shown) has an IC50 of no more than 1000 nM.
`CC(=O)O[C@@H]([C@H]1C[C@@H](C)C2C(O1)C(N)[C@@]1(C)[C@@H]3CC[C@H]4C(C)(C)[C@@H](O[C@@H]5OC[C@@H](O)[C@H](O)[C@H]5O)CC[C@@]45C[C@@]35CC[C@]21C)C(C)(C)O` (stereo partly shown) showed an IC50 of 1000 to 10000 nM.
With `CC(=O)OC(C)(C)[C@@H](O)[C@H]1C[C@@H](C)C2C(O1)[C@H](O)[C@@]1(C)[C@@H]3CC[C@H]4C(C)(C)[C@@H](O[C@@H]5OC[C@@H](O)[C@H](O)[C@H]5O)CC[C@@]45C[C@@]35CC[C@]21C` (stereo partly shown) the IC50 was 1000 to 10000 nM.
`COCO[C@@H]([C@H]1C[C@@H](C)C2=C(O1)[C@H](O)[C@@]1(C)[C@@H]3CC[C@H]4C(C)(C)[C@@H](O[C@@H]5OC[C@@H](O)[C@H](O)[C@H]5O)CC[C@@]45C[C@@]35CC[C@]21C)C(C)(C)O` was tested, and the IC50 was 1000 to 10000 nM.
`C[C@@H]1C[C@H]([C@H](O)C(C)(C)OC(=O)O)OC2C1[C@@]1(C)CC[C@@]34C[C@@]35CC[C@H](O[C@@H]3OC[C@@H](O)[C@H](O)[C@H]3O)C(C)(C)[C@@H]5CC[C@H]4[C@]1(C)[C@H]2O` (stereo partly shown) showed an IC50 of 1000 to 10000 nM.
With `C[C@@H]1C[C@H](C(=O)C(C)(C)O)OC2C1[C@@]1(C)CC[C@@]34C[C@@]35CC[C@H](O[C@@H]3OC[C@@H](O)[C@H](O)[C@H]3O)C(C)(C)[C@@H]5CC[C@H]4[C@]1(C)[C@H]2O` (stereo partly shown) the IC50 was greater than 10000 nM.
Work on `C[C@@H]1C[C@H]([C@H](OC(N)=O)C(C)(C)O)OC2C1[C@@]1(C)CC[C@@]34C[C@@]35CC[C@H](O[C@@H]3OC[C@@H](O)[C@H](O)[C@H]3O)C(C)(C)[C@@H]5CC[C@H]4[C@]1(C)[C@H]2O` (stereo partly shown) yielded an IC50 of 1000 to 10000 nM.
Compound `COCO[C@H]1[C@H](O)COC(O[C@H]2CC[C@]34C[C@]35CC[C@]3(C)C6C(O[C@@H]([C@@H]7OC(=O)OC7(C)C)C[C@H]6C)[C@H](O)[C@@]3(C)[C@@H]5CC[C@H]4C2(C)C)[C@@H]1O` (stereo partly shown) has an IC50 of 1000 to 10000 nM.
`CC(=O)O[C@H]1CC[C@]23C[C@]24CC[C@]2(C)C5[C@H](C)C[C@H]([C@H](OC(C)=O)C(C)(C)O)O[C@@H]5[C@H](O)[C@@]2(C)[C@@H]4CC[C@H]3C1(C)C` (stereo partly shown) gave an IC50 of no more than 1000 nM.
In the case of `CC(=O)O[C@@H]([C@H]1C[C@@H](C)C2C(O1)[C@H](O)[C@@]1(C)[C@@H]3CC[C@H]4C(C)(C)[C@@H](OC(CO)OCCO)CC[C@@]45C[C@@]35CC[C@]21C)C(C)(C)O` (stereo partly shown), the IC50 is reported as no more than 1000 nM.
With `CC(=O)O[C@@H]([C@H]1C[C@@H](C)C2C(O1)[C@H](O)[C@@]1(C)[C@@H]3CC[C@H]4C(C)(C)[C@@H](OC(=O)CCC(=O)O)CC[C@@]45C[C@@]35CC[C@]21C)C(C)(C)O` (stereo partly shown) the IC50 was 1000 to 10000 nM.
Compound `CC(=O)O[C@@H]([C@H]1C[C@@H](C)C2=C(O1)[C@H](O)[C@@]1(C)[C@@H]3CC[C@H]4C(C)(C)[C@@H](O[C@H]5CN(O)CCO5)CC[C@@]45C[C@@]35CC[C@]21C)C(C)(C)O` has an IC50 of no more than 1000 nM.
`CC(=O)O[C@@H]([C@H]1C[C@@H](C)C2C(O1)[C@H](O)[C@@]1(C)[C@@H]3CC[C@H]4C(C)(C)[C@@H](O[C@H]5CN(O)CCO5)CC[C@@]45C[C@@]35CC[C@]21C)C(C)(C)O` (stereo partly shown) was tested, and the IC50 was no more than 1000 nM.
For `CC(=O)O[C@@H]([C@H]1C[C@@H](C)C2C(O1)[C@H](O)[C@@]1(C)[C@@H]3CC[C@H]4C(C)(C)[C@@H](OCC(=O)O)CC[C@@]45C[C@@]35CC[C@]21C)C(C)(C)O` (stereo partly shown), the IC50 was 1000 to 10000 nM.
With `CC(=O)O[C@@H]([C@H]1C[C@@H](C)C2C(O1)[C@H](O)[C@@]1(C)[C@@H]3CC[C@H]4C(C)(C)[C@@H](O[C@H]5CN(C)CCO5)CC[C@@]45C[C@@]35CC[C@]21C)C(C)(C)O` (stereo partly shown) the IC50 was no more than 1000 nM.
Work on `CN[C@H]1CC[C@]23C[C@]24CC[C@]2(C)C5C(O[C@@H]([C@H](OC(C)=O)C(C)(C)O)C[C@H]5C)[C@H](O)[C@@]2(C)[C@@H]4CC[C@H]3C1(C)C` (stereo partly shown) yielded an IC50 of 1000 to 10000 nM.
For `CC(=O)O[C@@H]([C@H]1C[C@@H](C)C2C(O1)[C@H](O)[C@@]1(C)[C@@H]3CC[C@H]4C(C)(C)[C@@H](O[C@H]5CNCCO5)CC[C@@]45C[C@@]35CC[C@]21C)C(C)(C)O` (stereo partly shown), the IC50 was no more than 1000 nM.
Work on `CC(=O)O[C@@H]([C@H]1C[C@@H](C)C2C(O1)[C@H](O)[C@@]1(C)[C@@H]3CC[C@H]4C(C)(C)[C@H](NO)CC[C@@]45C[C@@]35CC[C@]21C)C(C)(C)O` (stereo partly shown) yielded an IC50 of 1000 to 10000 nM.

Same assay, conditions: Aβ-42, 10 umol/L; read-out: % Inhibition (range)
For `CC(=O)O[C@@H]([C@H]1C[C@@H](C)C2=C(O1)[C@H](O)[C@@]1(C)[C@@H]3CC[C@H]4C(C)(C)[C@@H](O)CC[C@@]45C[C@@]35CC[C@]21C)C(C)(C)O`, the inhibition at 10 µM was greater than 75%.

Same assay, conditions: Aβ-42, 100 umol/L; read-out: % Inhibition (range)
`CCC(=O)O[C@@H]([C@H]1C[C@@H](C)C2C(O1)C(O)[C@@]1(C)[C@@H]3CC[C@H]4C(C)(C)[C@@H](O[C@@H]5OC[C@@H](O)[C@H](O)[C@H]5O)CC[C@@]45C[C@@]35CC[C@]21C)C(C)(C)O` (stereo partly shown) showed an inhibition at 100 µM of 25 to 75%.
